Source: the NIST ThermoML archive (doi:10.1021/je034222z)

OCCC(F)(F)C(F)(F)C(F)(F)C(F)(F)C(F)(F)C(F)(F)C(F)(F)C(F)(F)F [1-decanol, 3,3,4,4,5,5,6,6,7,7,8,8,9,9,-heptadecafluoro]
Conditions | vapor or sublimation pressure [kPa]
294.1 K, Crystal, Transpiration method | 0.003

Conditions | Normal melting temperature [°C] | vapor or sublimation pressure [kPa]
357.15 K, Liquid | – | 0.708
369.15 K, Liquid | – | 1.465
380.15 K, Liquid | – | 2.774
392.15 K, Liquid | – | 4.91
397.15 K, Liquid | – | 5.1
403.15 K, Liquid | – | 8.284
415.15 K, Liquid | – | 13.8
421.15 K, Liquid | – | 15.27
428.15 K, Liquid | – | 22.75
430.15 K, Liquid | – | 23.4
439.15 K, Liquid | – | 34.45
440.15 K, Liquid | – | 32
445.15 K, Liquid | – | 35.67
452.15 K, Liquid | – | 51.67
463.15 K, Liquid | – | 72.34
468.15 K, Liquid | – | 75.75
474.15 K, Liquid | – | 100.61
498.15 K, Liquid | – | 162.1
Crystal, visual observation | 49.0 | –
